We go through eight molecules from US11957695B2, “Methods and compositions targeting glucocorticoid signaling for modulating immune responses” (The Broad Institute, Inc., priority 2018, dated 2024).

“And” between values parts separate entries of the source, which are not always exact repeats. Equal entries are not always repeated.

For data set [1], the target named is T1, glucocorticoid receptor (GR) (Homo sapiens, UniProt P04150).
T1 sequence (P04150 1-777): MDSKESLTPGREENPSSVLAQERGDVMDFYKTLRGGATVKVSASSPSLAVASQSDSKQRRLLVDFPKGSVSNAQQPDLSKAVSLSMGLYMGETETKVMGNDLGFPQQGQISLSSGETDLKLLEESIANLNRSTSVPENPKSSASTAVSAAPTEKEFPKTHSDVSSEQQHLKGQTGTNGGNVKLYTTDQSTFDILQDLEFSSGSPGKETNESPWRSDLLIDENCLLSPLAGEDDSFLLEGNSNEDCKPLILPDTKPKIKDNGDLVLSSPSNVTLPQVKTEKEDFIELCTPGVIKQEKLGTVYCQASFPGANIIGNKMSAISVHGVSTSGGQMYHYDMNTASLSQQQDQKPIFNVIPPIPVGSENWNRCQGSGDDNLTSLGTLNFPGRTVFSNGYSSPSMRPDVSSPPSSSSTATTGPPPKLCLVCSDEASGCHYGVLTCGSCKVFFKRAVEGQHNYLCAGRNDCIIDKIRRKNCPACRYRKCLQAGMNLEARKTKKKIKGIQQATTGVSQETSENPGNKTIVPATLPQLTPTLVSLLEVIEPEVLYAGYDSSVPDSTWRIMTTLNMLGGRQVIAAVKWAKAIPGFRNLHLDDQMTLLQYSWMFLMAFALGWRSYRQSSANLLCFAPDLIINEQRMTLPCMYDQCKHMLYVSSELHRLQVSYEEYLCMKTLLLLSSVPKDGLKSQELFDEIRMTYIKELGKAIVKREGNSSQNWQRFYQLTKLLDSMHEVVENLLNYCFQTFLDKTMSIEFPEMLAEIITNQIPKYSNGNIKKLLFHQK
The conditions noted are these: cited from earlier work.

The conditions of data set [2]: in vivo; cited from earlier work.
Data set [3] deals with Naïve CD8+ T cells. The data set is described as follows: RNA-Seq of naïve CD8+ T cells cultured with anti CD3/28 in the presence of Dex (GC), IL-27 or GC+IL-27 (Tables 1, 2A, 2B, 5-7). It is filed as cell-based, mouse. How it is done:
(§1) Cell culture and treatment with glucocorticoid. CD8^+ T cells from splenocytes and lymph nodes were isolated using CD8 microbeads (Miltenyi). Cells were further stained with antibodies against CD8, CD62L and CD44, and CD8^+CD62L^hiCD44^lo naive cells were sorted by BD FacsAria (BD Biosciences). Sorted cells were cultured for 9 days as described below in DMEM supplemented with 10% (vol/vol) FCS, […], 1 mM sodium pyruvate, nonessential amino acids, L-glutamine, and 100 U/ml penicillin and 100 µg/ml streptomycin.
RNA-Seq data pre-processing. […] Heatmap figures were generated using pheatmap package^53.
Analysis of additive and non-additive effects. To test whether the glucocorticoid and IL-27 signaling pathways had additive or non-additive effects on gene expression, Applicants stimulated naïve CD8^+ T cells in the presence of Dex, IL-27, or Dex+IL-27 in vitro. Applicants tested for non-additive effects between IL-27 and glucocorticoid signaling using a negative binomial generalized linear model in order to account for both estimations of the mean and the dispersion across conditions, where dispersion describes the relationship between the mean and variance. The model was applied to the expression data using ANOVA between a model that takes into account the interaction between IL27 and Dex versus no interaction.

Data set [4] has as its system Naïve CD8+ T cells. In words: Quantitative RT-PCR of Prdm1, Nfil3 and Tcf7 in Ctrl, GC, IL-27 or GC+IL-27 treated cells. It is filed as cell-based, mouse. How it is done:
as §1
Quantitative PCR. Total RNA was extracted using RNeasy columns (Qiagen). Reverse transcription of mRNA was performed in a thermal cycler (Bio-Rad) using iScript cDNA Synthesis Kit (Bio-Rad). qPCR was performed in the Vii7 Real-Time PCR system (Applied Biosystems) using the primers for Taqman gene expression (Applied Biosystems). Data were normalized to the expression of Actb.

Regarding `C[C@]12CCC(=O)C=C1CC[C@@H]1[C@@H]2[C@@H](O)C[C@@]2(C)[C@H]1CC[C@]2(O)C(=O)CO` [Cortisol (hydrocortisone), Cortisol], the Glucocorticoid potency in data set [1] is 1. As to `C[C@]12CCC(=O)C=C1CC[C@@H]1[C@@H]2C(=O)C[C@@]2(C)[C@H]1CC[C@]2(O)C(=O)CO` [Cortisone], the Glucocorticoid potency in data set [1] was 0.8. Regarding `CC(=O)OCC(=O)[C@H]1CC[C@H]2[C@@H]3CCC4=CC(=O)CC[C@]4(C)[C@H]3CC[C@]12C` [Deoxycorticosterone acetate], the Glucocorticoid potency in data set [1] is given as 0. `C[C@H]1C[C@@H]2[C@H]([C@@H](O)C[C@@]3(C)[C@H]2CC[C@]3(O)C(=O)CO)[C@@]2(C)C=CC(=O)C=C12` [Methylprednisolone]: the “Terminal half-life” value in data set [2] is 18 to 40 h.

For `C[C@]12C=CC(=O)C=C1CC[C@@H]1[C@@H]2[C@@H](O)C[C@@]2(C)[C@H]1CC[C@]2(O)C(=O)CO` [Prednisolone], the “Terminal half-life” value in data set [2] is 16 to 36 h. In addition, the Glucocorticoid potency in data set [1] was 4. For the molecule `C[C@]12C=CC(=O)C=C1CC[C@@H]1[C@@H]2C(=O)C[C@@]2(C)[C@H]1CC[C@]2(O)C(=O)CO` [Prednisone], the “Terminal half-life” value in data set [2] was 16 to 36 h. In the case of `C[C@]12C=CC(=O)C=C1CC[C@H]1[C@@H]3C[C@@H](O)[C@](O)(C(=O)CO)[C@@]3(C)C[C@H](O)[C@@]12F` [Triamcinolone], in data set [2], the “Terminal half-life” value was 12 to 36 h. For the same molecule, the Glucocorticoid potency in data set [1] was 5.

B1: IL-27: heterodimeric cytokine and a member of the IL-12 family of cytokines that is produced by antigen presenting cells (protein, UniProt Q8NEV9 29-243; Q14213 21-229, looked up)
Interleukin-27 subunit alpha: FPRPPGRPQLSLQELRREFTVSLHLARKLLSEVRGQAHRFAESHLPGVNLYLLPLGEQLPDVSLTFQAWRRLSDPERLCFISTTLQPFHALLGGLGTQGRWTNMERMQLWAMRLDLRDLQRHLRFQVLAAGFNLPEEEEEEEEEEEEERKGLLPGALGSALQGPAQVSWPQLLSTYRLLHSLELVLSRAVRELLLLSKAGHSVWPLGFPTLSPQP
Interleukin-27 subunit beta: RKGPPAALTLPRVQCRASRYPIAVDCSWTLPPAPNSTSPVSFIATYRLGMAARGHSWPCLQQTPTSTSCTITDVQLFSMAPYVLNVTAVHPWGSSSSFVPFITEHIIKPDPPEGVRLSPLAERQLQVQWEPPGSWPFPEIFSLKYWIRYKRQGAARFHRVGPIEATSFILRAVRPRARYYVQVAAQDLTDYGELSDWSLPATATMSLGK
Consider B1, for which the “transcriptional state of stimulated CD8+ T cells” value in data set [3] (FIG. 12) was “transcriptionally distinct”. For the same molecule, in data set [3] (three values per treatment, control cells 9.93, 8.28, 11.45), the Tcf7 expression levels was 5.37 and 7.39 and 5.57. Besides, the Nupr1 expression levels in data set [3] (three values per treatment, control cells 12.77, 13.57, 13.47) was 11.93 and 21.86 and 19.79. Further, the CD28 expression levels in data set [3] (three values per treatment, control cells 19.54, 18.14, 18.29) is 48.93 and 37.2 and 39.84. Also, in data set [3] (three values per treatment, control cells 87.12, 92.82, 96.51), the Lilrb4 expression levels was 73.62 and 94.25 and 105.87. Moreover, the “Tcf7 expression (qPCR)” value in data set [4] was “dramatically reduced”.
